Assays:
Assay type in all cases: in vivo, human
KPNA1 mRNA = assay: Microarray analysis of KPNA1 mRNA expression in PBMC of malaria patients before and after chloroquine therapy; details: disease-decreased level (3.9-fold), p=0.0015, data set GSE5418
Excerpt: (§1) (See FIG. 12). […] (See FIG. 12).

NLRP1 mRNA = assay: Microarray analysis of NLRP1 mRNA expression in PBMC of malaria patients before and after chloroquine therapy; details: disease-decreased level (1.4-fold), p=0.016, data set GSE5418
Excerpt: as §1

NLRP3 mRNA = assay: Microarray analysis of NLRP3 mRNA expression in PBMC of malaria patients before and after chloroquine therapy; details: disease-increased level (2.7-fold), p=0.024, data set GSE5418
Excerpt: as §1

KPNA6 mRNA = assay: Microarray analysis of KPNA6 mRNA expression in PBMC of malaria patients before and after chloroquine therapy; details: data set GSE5418
Excerpt: as §1

[1] = test system: principal components of nuclear import and inflammasome pathways; assay: Gene expression phenotypes of nuclear import and inflammasome pathways in PBMC of chloroquine-treated malaria patients; details: PBMC of malaria patients treated with chloroquine

Structure (SMILES): CCN(CC)CCCC(C)Nc1ccnc2cc(Cl)ccc12 (centres unmarked) [chloroquine]
- KPNA1 mRNA expression elevated after chloroquine therapy (KPNA1 mRNA): 66%
- NLRP1 mRNA expression elevated after chloroquine therapy (NLRP1 mRNA): 13%
- NLRP3 mRNA expression reduced after chloroquine therapy (NLRP3 mRNA): 57%
- KPNA6 mRNA expression change after chloroquine therapy (KPNA6 mRNA): do not manifest statistically significant changes
- Effect on aberrant disease-associated gene expression phenotypes (KPNA1, NLRP1, NLRP3) [1]: partial reversal of the aberrant gene expression phenotypes
